As usually defined, the Emax is the greatest response seen or fitted, relative to the assay's reference.

Format in all cases: cell-based
The target of assay [1] is T1, von Hippel-Lindau disease tumor suppressor/Bromodomain-containing protein 4 (Homo sapiens, UniProt O60885+P40337). Briefly: PROTAC activity at BRD4/VHL in human MCF7 cells assessed as induction of BRD4 degradation by measuring residual activity at 300 nM incubated for 24 hrs in presence of 1 uM VHL based ligand (2S,4R)-1-((S)-2-(2,3-dihydroxybenzamido)-3,3-dimethylbutanoyl)-4-hydroxy-N-(4-(4-methylthiazol-5-yl)benzyl)pyrrolidine-2-carboxamide by Western blot based Combinatorial Ubiquitination Real-time PROteolysis analysis. On the technique in general: A western blot detects proteins with antibodies after separation by electrophoresis.

Assay [2] deals with T1, von Hippel-Lindau disease tumor suppressor/Bromodomain-containing protein 4. Briefly: PROTAC activity at BRD4/VHL in human MCF7 cells assessed as induction of BRD4 degradation by measuring residual activity at 100 nM incubated for 24 hrs in presence of 3 uM VHL based ligand (2S,4R)-1-((S)-2-(2,3-dihydroxybenzamido)-3,3-dimethylbutanoyl)-4-hydroxy-N-(4-(4-methylthiazol-5-yl)benzyl)pyrrolidine-2-carboxamide by Western blot based Combinatorial Ubiquitination Real-time PROteolysis analysis.

Assay [3] has the same target. Briefly: PROTAC activity at BRD4/VHL in human MCF7 cells assessed as induction of BRD4 degradation by measuring residual activity at 1 uM incubated for 24 hrs in presence of 1 uM VHL based ligand (2S,4R)-1-((S)-2-(2,3-dihydroxybenzamido)-3,3-dimethylbutanoyl)-4-hydroxy-N-(4-(4-methylthiazol-5-yl)benzyl)pyrrolidine-2-carboxamide by Western blot based Combinatorial Ubiquitination Real-time PROteolysis analysis.

The target is the same in assay [4]. Briefly: PROTAC activity at BRD4/VHL in human MCF7 cells assessed as induction of BRD4 degradation by measuring residual activity at 30 nM incubated for 24 hrs in presence of 1 uM VHL based ligand (2S,4R)-1-((S)-2-(2,3-dihydroxybenzamido)-3,3-dimethylbutanoyl)-4-hydroxy-N-(4-(4-methylthiazol-5-yl)benzyl)pyrrolidine-2-carboxamide by Western blot based Combinatorial Ubiquitination Real-time PROteolysis analysis.

Assay [5] has the same target. Put plainly: PROTAC activity at BRD4/VHL in human MCF7 cells assessed as induction of BRD4 degradation by measuring residual activity at 1 uM incubated for 24 hrs in presence of 10 uM VHL based ligand (2S,4R)-1-((S)-2-(2,3-dihydroxybenzamido)-3,3-dimethylbutanoyl)-4-hydroxy-N-(4-(4-methylthiazol-5-yl)benzyl)pyrrolidine-2-carboxamide by Western blot based Combinatorial Ubiquitination Real-time PROteolysis analysis.

Assay [6] shares this target. Briefly: PROTAC activity at BRD4/VHL in human MCF7 cells assessed as induction of BRD4 degradation by measuring residual activity at 30 nM incubated for 24 hrs in presence of 10 uM VHL based ligand (2S,4R)-1-((S)-2-(2,3-dihydroxybenzamido)-3,3-dimethylbutanoyl)-4-hydroxy-N-(4-(4-methylthiazol-5-yl)benzyl)pyrrolidine-2-carboxamide by Western blot based Combinatorial Ubiquitination Real-time PROteolysis analysis.

Assay [7] shares this target. Put plainly: PROTAC activity at BRD4/VHL in human MCF7 cells assessed as induction of BRD4 degradation by measuring residual activity at 30 nM incubated for 24 hrs in presence of 10 uM BRD4 based ligand ((4S)-6-(4-chlorophenyl)-4-(2-(ethylamino)-2-oxoethyl)-1-methyl4Hbenzo[f][1,2,4]triazolo [4,3-a][1,4]diazepin-8-yl)boronic acid by Western blot based Combinatorial Ubiquitination Real-time PROteolysis analysis.

For assay [8] the target is unchanged. Put plainly: PROTAC activity at BRD4/VHL in human MCF7 cells assessed as induction of BRD4 degradation by measuring residual activity at 100 nM incubated for 24 hrs in presence of 3 uM BRD4 based ligand ((4S)-6-(4-chlorophenyl)-4-(2-(ethylamino)-2-oxoethyl)-1-methyl4Hbenzo[f][1,2,4]triazolo [4,3-a][1,4]diazepin-8-yl)boronic acid by Western blot based Combinatorial Ubiquitination Real-time PROteolysis analysis.

Assay [9] shares this target. Put plainly: PROTAC activity at VHL/BRD4 in HEK293 cells assessed as induction of BRD4 degradation by measuring Tmax at 1 uM measured every 15 mins for 24 hrs in presence of BRD4 based ligand ((4S)-6-(4-chlorophenyl)-4-(2-(ethylamino)-2-oxoethyl)-1-methyl4Hbenzo[f][1,2,4]triazolo [4,3-a][1,4]diazepin-8-yl)boronic acid by HiBiT based Combinatorial Ubiquitination Real-time PROteolysis analysis. On the technique in general: HiBiT is a short tag that completes a luciferase, so light tracks the accessible tagged protein.

For assay [10] the target is unchanged. Briefly: PROTAC activity at BRD4/VHL in human MCF7 cells assessed as induction of BRD4 degradation by measuring residual activity at 10 uM incubated for 24 hrs in presence of 100 nM BRD4 based ligand ((4S)-6-(4-chlorophenyl)-4-(2-(ethylamino)-2-oxoethyl)-1-methyl4Hbenzo[f][1,2,4]triazolo [4,3-a][1,4]diazepin-8-yl)boronic acid by Western blot based Combinatorial Ubiquitination Real-time PROteolysis analysis.

The target is the same in assay [11]. Put plainly: PROTAC activity at BRD4/VHL in human MCF7 cells assessed as induction of BRD4 degradation by measuring residual activity at 1 uM incubated for 24 hrs in presence of 3 uM BRD4 based ligand ((4S)-6-(4-chlorophenyl)-4-(2-(ethylamino)-2-oxoethyl)-1-methyl4Hbenzo[f][1,2,4]triazolo [4,3-a][1,4]diazepin-8-yl)boronic acid by Western blot based Combinatorial Ubiquitination Real-time PROteolysis analysis.

The target is the same in assay [12]. Briefly: PROTAC activity at VHL/BRD4 in HEK293 cells assessed as induction of BRD4 degradation by measuring maximal level of degradation at 1 uM measured every 15 mins for 24 hrs in presence of BRD4 based ligand ((4S)-6-(4-chlorophenyl)-4-(2-(ethylamino)-2-oxoethyl)-1-methyl4Hbenzo[f][1,2,4]triazolo [4,3-a][1,4]diazepin-8-yl)boronic acid by HiBiT based Combinatorial Ubiquitination Real-time PROteolysis analysis.

The target is the same in assay [13]. Put plainly: PROTAC activity at BRD4/VHL in human MCF7 cells assessed as induction of BRD4 degradation by measuring residual activity at 30 nM incubated for 24 hrs in presence of 300 nM BRD4 based ligand ((4S)-6-(4-chlorophenyl)-4-(2-(ethylamino)-2-oxoethyl)-1-methyl4Hbenzo[f][1,2,4]triazolo [4,3-a][1,4]diazepin-8-yl)boronic acid by Western blot based Combinatorial Ubiquitination Real-time PROteolysis analysis.

For assay [14] the target is unchanged. Put plainly: PROTAC activity at BRD4/VHL in human MCF7 cells assessed as induction of BRD4 degradation by measuring residual activity at 300 nM incubated for 24 hrs in presence of 3 uM BRD4 based ligand ((4S)-6-(4-chlorophenyl)-4-(2-(ethylamino)-2-oxoethyl)-1-methyl4Hbenzo[f][1,2,4]triazolo [4,3-a][1,4]diazepin-8-yl)boronic acid by Western blot based Combinatorial Ubiquitination Real-time PROteolysis analysis.

Assay [15] shares this target. Briefly: PROTAC activity at BRD4/VHL in human MCF7 cells assessed as induction of BRD4 degradation by measuring residual activity at 30 nM incubated for 24 hrs in presence of 100 nM BRD4 based ligand ((4S)-6-(4-chlorophenyl)-4-(2-(ethylamino)-2-oxoethyl)-1-methyl4Hbenzo[f][1,2,4]triazolo [4,3-a][1,4]diazepin-8-yl)boronic acid by Western blot based Combinatorial Ubiquitination Real-time PROteolysis analysis.

The structures appear in SMILES notation.

T1 sequence (P40337 whole entry, looked up, other chains not shown): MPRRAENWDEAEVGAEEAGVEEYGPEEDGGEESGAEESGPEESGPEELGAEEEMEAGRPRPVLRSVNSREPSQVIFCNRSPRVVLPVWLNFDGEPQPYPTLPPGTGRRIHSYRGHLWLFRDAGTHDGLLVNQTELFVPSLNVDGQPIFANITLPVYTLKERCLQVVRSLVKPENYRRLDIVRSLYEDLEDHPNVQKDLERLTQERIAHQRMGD

As to `CCNC(=O)C[C@@H]1N=C(c2ccc(Cl)cc2)c2cc(B(O)O)ccc2-n2c(C)nnc21`, the Activity in assay [1] amounted to 38%; in [2], 74%; in [3], 35%; in assay [4], 96%; in assay [5] it was 20%; in assay [6], 76%.

Turning to `Cc1ncsc1-c1ccc(CNC(=O)[C@@H]2C[C@@H](O)CN2C(=O)[C@@H](NC(=O)c2cccc(O)c2O)C(C)(C)C)cc1`, the Activity in assay [7] came out at 76%; in [8], 74%; in [10], 55%; in assay [11], 22%; in assay [13], 104%; in assay [14], 37%. Further, the Activity in [15] was 89%. Moreover, in assay [9], the Tmax turned out to be 19.5 h. For the same molecule, in [12], the Emax turned out to be 80%.
